# Source: PubChem BioAssay (NCI)
#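 Five concentrations, 48 hours, 96-well plates. TGI is the concentration that stops growth completely.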
# What was measured:
# Test in all cases: DTP human tumour cell line panel, 48 h
# [1] = system: COLO 205 colon
# [2] = system: CCRF-CEM leukemia
# [3] = system: OVCAR-8 ovarian
# [4] = system: UACC-62 melanoma
# [5] = system: SF-539 CNS
# [6] = system: SN12C renal
# [7] = system: SF-295 CNS
# [8] = system: NCI-H23 lung
# [9] = system: SK-MEL-2 melanoma
# [10] = system: HL-60(TB) leukemia
# [11] = system: MDA-MB-231 breast
# [12] = system: MCF7 breast
# [13] = system: 786-0 renal
# [14] = system: SK-MEL-28 melanoma
# [15] = system: MOLT-4 leukemia
# [16] = system: KM12 colon
# [17] = system: NCI-H226 lung
# [18] = system: HT29 colon
# [19] = system: TK-10 renal
# [20] = system: SR leukemia
# [21] = system: NCI-H522 lung
# [22] = system: MDA-MB-435
# [23] = system: M14 melanoma
# [24] = system: NCI-H460 lung
# [25] = system: UACC-257 melanoma
# [26] = system: HCT-15 colon
# [27] = system: SF-268 CNS
# [28] = system: UO-31 renal
# [29] = system: DU-145 prostate
# [30] = system: ACHN renal
# [31] = system: IGROV1 ovarian
# [32] = system: T-47D breast
# [33] = system: OVCAR-5 ovarian
# [34] = system: SNB-19 CNS
# [35] = system: OVCAR-3 ovarian
# [36] = system: A549 NSCLC
# [37] = system: A498 renal
# [38] = system: HOP-62 NSCLC
# [39] = system: K-562 leukemia
# [40] = system: PC-3 prostate
# [41] = system: SK-MEL-5 melanoma
# [42] = system: LOX IMVI melanoma
# [43] = system: HCT-116 colon
# [44] = system: CAKI-1 renal
# [45] = system: NCI/ADR-RES ovarian
# [46] = system: OVCAR-4 ovarian
# [47] = system: SNB-75 CNS
# [48] = system: MDA-N
# [49] = system: HS 578T breast
# [50] = system: SW-620 colon
# [51] = system: U251 CNS
# [52] = system: BT-549 breast
# [53] = system: SK-OV-3 ovarian
# [54] = system: RPMI-8226 leukemia
# [55] = system: EKVX NSCLC
# [56] = system: MALME-3M melanoma
# [57] = system: HOP-92 NSCLC
# [58] = system: RXF 393 renal
# [59] = system: HCC-2998 colon
structure (smiles),measurement,setting,value
Cc1ccc2c(c1)nc(N)n[n+]2[O-],TGI,[1],> 100 µM
same,TGI,[2],> 100 µM
same,TGI,[3],> 100 µM
same,TGI,[4],> 100 µM
same,TGI,[5],> 100 µM
same,TGI,[6],> 100 µM
same,TGI,[7],> 100 µM
same,TGI,[8],> 100 µM
same,TGI,[9],> 100 µM
same,TGI,[10],> 100 µM
same,TGI,[11],> 100 µM
same,TGI,[12],> 100 µM
same,TGI,[13],> 100 µM
same,TGI,[14],> 100 µM
same,TGI,[15],> 100 µM
same,TGI,[16],> 100 µM
same,TGI,[17],> 100 µM
same,TGI,[18],> 100 µM
same,TGI,[19],> 100 µM
same,TGI,[20],> 100 µM
same,TGI,[21],> 100 µM
same,TGI,[22],> 100 µM
same,TGI,[23],> 100 µM
same,TGI,[24],> 100 µM
same,TGI,[25],> 100 µM
same,TGI,[26],> 100 µM
same,TGI,[27],> 100 µM
same,TGI,[28],> 100 µM
same,TGI,[29],> 100 µM
same,TGI,[30],> 100 µM
same,TGI,[31],> 100 µM
same,TGI,[32],> 100 µM
same,TGI,[33],> 100 µM
same,TGI,[34],> 100 µM
same,TGI,[35],> 100 µM
same,TGI,[36],> 100 µM
same,TGI,[37],> 100 µM
same,TGI,[38],> 100 µM
same,TGI,[39],> 100 µM
same,TGI,[40],> 100 µM
same,TGI,[41],> 100 µM
same,TGI,[42],> 100 µM
same,TGI,[43],> 100 µM
same,TGI,[44],> 100 µM
same,TGI,[45],> 100 µM
same,TGI,[46],> 100 µM
same,TGI,[47],> 100 µM
same,TGI,[48],> 100 µM
same,TGI,[49],> 100 µM
same,TGI,[50],> 100 µM
same,TGI,[51],> 100 µM
same,TGI,[52],> 100 µM
same,TGI,[53],> 100 µM
same,TGI,[54],> 100 µM
same,TGI,[55],> 100 µM
CC(=O)OCC1OC(N2C(=O)/C(=C\c3ccc(Cl)cc3)C(N)=Nc3ccccc32)C(OC(C)=O)C(OC(C)=O)C1OC(C)=O (stereo unspecified),TGI,[1],29.8 µM
same,TGI,[3],26.7 µM
same,TGI,[4],> 100 µM
same,TGI,[5],40.8 µM
same,TGI,[6],> 100 µM
same,TGI,[7],> 100 µM
same,TGI,[8],68.7 µM
same,TGI,[9],74.6 µM
same,TGI,[56],68.4 µM
same,TGI,[10],> 100 µM
same,TGI,[11],49.9 µM
same,TGI,[12],33.1 µM
same,TGI,[13],43.6 µM
same,TGI,[14],71.2 µM
same,TGI,[15],27 µM
same,TGI,[16],39.5 µM
same,TGI,[18],70.2 µM
same,TGI,[19],88.2 µM
same,TGI,[20],51.1 µM
same,TGI,[22],30.7 µM
same,TGI,[23],37.4 µM
same,TGI,[24],> 100 µM
same,TGI,[25],66.6 µM
same,TGI,[26],59.2 µM
same,TGI,[27],42 µM
same,TGI,[28],58.8 µM
same,TGI,[29],> 100 µM
same,TGI,[30],45.7 µM
same,TGI,[31],63.4 µM
same,TGI,[32],39.1 µM
same,TGI,[33],> 100 µM
same,TGI,[57],45.2 µM
same,TGI,[34],> 100 µM
same,TGI,[35],32.6 µM
same,TGI,[36],> 100 µM
same,TGI,[37],> 100 µM
same,TGI,[38],85.7 µM
same,TGI,[39],33.1 µM
same,TGI,[40],59.8 µM
same,TGI,[41],27.1 µM
same,TGI,[42],39.2 µM
same,TGI,[43],30.2 µM
same,TGI,[44],> 100 µM
same,TGI,[45],> 100 µM
same,TGI,[46],66.4 µM
same,TGI,[47],74.4 µM
same,TGI,[48],37.9 µM
same,TGI,[49],> 100 µM
same,TGI,[50],> 100 µM
same,TGI,[58],27.9 µM
same,TGI,[51],30.5 µM
same,TGI,[52],> 100 µM
same,TGI,[59],36.5 µM
same,TGI,[53],> 100 µM
same,TGI,[54],13.8 µM
same,TGI,[55],> 100 µM
